According to ChEMBL document CHEMBL1201861, “Genomics of Drug Sensitity in Cancer screening data, Wellcome Trust Sanger Institute”:

How the values were obtained:
Assay in all cases: cells
[1] = system: NCI-H1650; assay type: functional, cell-based, Homo sapiens; conditions: Homo sapiens, NCI-H1650;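 further: growth inhibition of human NCI-H1650 cells measured by a cell viability assay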
Description: SANGER: Inhibition of human NCI-H1650 cell growth in a cell viability assay.

[2] = system: KM12; assay type: functional, cell-based, Homo sapiens; conditions: Homo sapiens, KM12;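 further: KM12 cell growth inhibition, read out with a cell viability assay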
Description: SANGER: Inhibition of human KM12 cell growth in a cell viability assay.

[3] = system: A253 cell line; assay type: functional, cell-based, Homo sapiens; conditions: Homo sapiens, A253;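 further: growth inhibition of A253 cells, read out with a cell viability assay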
Description: SANGER: Inhibition of human A253 cell growth in a cell viability assay.

[4] = system: GR-ST; assay type: functional, cell-based, Homo sapiens; conditions: Homo sapiens, GR-ST
Description: SANGER: Inhibition of human GR-ST cell growth in a cell viability assay.

[5] = system: SK-N-DZ; assay type: functional, cell-based, Homo sapiens; conditions: Homo sapiens, SK-N-DZ; read-out: IC50;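 further: growth inhibition of the cancer cell line, read out through a viability assay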
Description: SANGER: Inhibition of human SK-N-DZ cell growth in a cell viability assay.

[6] = system: NH-12; assay type: functional, cell-based, Homo sapiens; conditions: Homo sapiens, NH-12;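 further: growth inhibition of NH-12 cells, read out with a cell viability assay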
Description: SANGER: Inhibition of human NH-12 cell growth in a cell viability assay.

[7] = system: EKVX; assay type: functional, cell-based, Homo sapiens; conditions: Homo sapiens, EKVX;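 further: growth inhibition of human EKVX cells, read out with a cell viability assay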
Description: SANGER: Inhibition of human EKVX cell growth in a cell viability assay.

[8] = system: LXF-289 cell line; assay type: functional, cell-based; conditions: Homo sapiens
Description: SANGER: Inhibition of human LXF-289 cell growth in a cell viability assay.

[9] = system: SK-LMS-1; assay type: functional, cell-based, Homo sapiens; conditions: Homo sapiens, SK-LMS-1;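 further: growth inhibition of human SK-LMS-1 cells, read out with a cell viability assay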
Description: SANGER: Inhibition of human SK-LMS-1 cell growth in a cell viability assay.

[10] = system: MHH-PREB-1; assay type: functional, cell-based, Homo sapiens; conditions: Homo sapiens, MHH-PREB-1;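 further: cell viability assay measuring inhibition of proliferation of human MHH-PREB-1 cells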
Description: SANGER: Inhibition of human MHH-PREB-1 cell growth in a cell viability assay.

[11] = system: MHH-NB-11; assay type: functional, cell-based, Homo sapiens; conditions: Homo sapiens, MHH-NB-11;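 further: growth inhibition of human MHH-NB-11 cells, read out by a cell viability assay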
Description: SANGER: Inhibition of human MHH-NB-11 cell growth in a cell viability assay.

[12] = system: TE-10; assay type: functional, cell-based, Homo sapiens; conditions: Homo sapiens, TE-10;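 further: growth inhibition of TE-10 cells, measured by a cell viability assay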
Description: SANGER: Inhibition of human TE-10 cell growth in a cell viability assay.

[13] = system: KG-1; assay type: functional, cell-based, Homo sapiens; conditions: Homo sapiens, KG-1;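 further: growth inhibition of KG-1 cells, read out by a cell viability assay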
Description: SANGER: Inhibition of human KG-1 cell growth in a cell viability assay.

[14] = system: NEC8; assay type: functional, cell-based, Homo sapiens; conditions: Homo sapiens, NEC8;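 further: growth inhibition of human NEC8 cells, read out by a cell viability assay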
Description: SANGER: Inhibition of human NEC8 cell growth in a cell viability assay.

[15] = system: MV4-11; assay type: functional, cell-based, Homo sapiens, MV-4-11; conditions: Homo sapiens, MV4-11;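 further: cell viability readout measuring growth inhibition of human MV-4-11 cells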
Description: SANGER: Inhibition of human MV-4-11 cell growth in a cell viability assay.

[16] = system: LS-1034; assay type: functional, cell-based, Homo sapiens; conditions: Homo sapiens, LS-1034
Description: SANGER: Inhibition of human LS-1034 cell growth in a cell viability assay.

[17] = system: SJSA-1; assay type: functional, cell-based, Homo sapiens; conditions: Homo sapiens, SJSA-1;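 further: growth inhibition of human SJSA-1 cells, read out through a cell viability measurement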
Description: SANGER: Inhibition of human SJSA-1 cell growth in a cell viability assay.

[18] = system: NCI-H23; assay type: functional, cell-based, Homo sapiens; conditions: Homo sapiens, NCI-H23;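 further: cell viability assay measuring growth inhibition of NCI-H23 cells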
Description: SANGER: Inhibition of human NCI-H23 cell growth in a cell viability assay.

[19] = system: J-RT3-T3-5; assay type: functional, cell-based, Homo sapiens; conditions: Homo sapiens, J-RT3-T3-5;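 further: cell viability assay measuring growth inhibition of human J-RT3-T3-5 cells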
Description: SANGER: Inhibition of human J-RT3-T3-5 cell growth in a cell viability assay.

[20] = system: Lu-65; assay type: functional, cell-based, Homo sapiens; conditions: Homo sapiens, Lu-65;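 further: growth inhibition of Lu-65 cancer cells, read out by a cell viability assay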
Description: SANGER: Inhibition of human LU-65 cell growth in a cell viability assay.

[21] = system: KALS-1; assay type: functional, cell-based, Homo sapiens; conditions: Homo sapiens, KALS-1; read-out: IC50;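 further: growth inhibition of KALS-1 cells, determined with a cell viability assay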
Description: SANGER: Inhibition of human KALS-1 cell growth in a cell viability assay.

[22] = system: PSN1; assay type: functional, cell-based, Homo sapiens; conditions: Homo sapiens, PSN1;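 further: suppression of growth of human PSN1 cells, read out by a cell viability assay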
Description: SANGER: Inhibition of human PSN1 cell growth in a cell viability assay.

[23] = system: UACC-257; assay type: functional, cell-based, Homo sapiens; conditions: Homo sapiens, UACC-257
Description: SANGER: Inhibition of human UACC-257 cell growth in a cell viability assay.

[24] = system: COLO-829; assay type: functional, cell-based, Homo sapiens; conditions: Homo sapiens, COLO-829
Description: SANGER: Inhibition of human COLO-829 cell growth in a cell viability assay.

[25] = system: KP-N-YS; assay type: functional, cell-based, Homo sapiens; conditions: Homo sapiens, KP-N-YS;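 further: cell viability assay measuring inhibition of cell line growth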
Description: SANGER: Inhibition of human KP-N-YS cell growth in a cell viability assay.

[26] = system: LB831-BLC; assay type: functional, cell-based, Homo sapiens; conditions: Homo sapiens, LB831-BLC;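 further: growth inhibition of LB831-BLC cells, read out with a cell viability assay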
Description: SANGER: Inhibition of human LB831-BLC cell growth in a cell viability assay.

[27] = system: ONS-76; assay type: functional, cell-based, Homo sapiens; conditions: Homo sapiens, ONS-76;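 further: growth inhibition of human ONS-76 cells, read out with a cell viability assay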
Description: SANGER: Inhibition of human ONS-76 cell growth in a cell viability assay.

[28] = system: RCC10RGB; assay type: functional, cell-based, Homo sapiens; conditions: Homo sapiens, RCC10RGB;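 further: growth inhibition of human RCC10RGB cells, read out by a cell viability assay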
Description: SANGER: Inhibition of human RCC10RGB cell growth in a cell viability assay.

[29] = system: RPMI-8226; assay type: functional, cell-based, Homo sapiens; conditions: Homo sapiens, RPMI-8226
Description: SANGER: Inhibition of human RPMI-8226 cell growth in a cell viability assay.

[30] = system: BB49-HNC; assay type: functional, cell-based, Homo sapiens; conditions: Homo sapiens, BB49-HNC;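 further: cell viability assay read-out, reported as inhibition of BB49-HNC cell growth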
Description: SANGER: Inhibition of human BB49-HNC cell growth in a cell viability assay.

[31] = system: U-87 MG; assay type: functional, cell-based, Homo sapiens, U-87MG ATCC; conditions: Homo sapiens, U-87 MG;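 further: growth inhibition of the cells measured with a viability assay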
Description: SANGER: Inhibition of human U-87-MG cell growth in a cell viability assay.

[32] = system: CW-2; assay type: functional, cell-based, Homo sapiens; conditions: Homo sapiens, CW-2;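 further: growth inhibition of CW-2 cells, read out by a cell viability assay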
Description: SANGER: Inhibition of human CW-2 cell growth in a cell viability assay.

[33] = system: HD-MY-Z; assay type: functional, cell-based, Homo sapiens; conditions: Homo sapiens, HD-MY-Z;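 further: growth inhibition of HD-MY-Z cells, read out with a cell viability assay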
Description: SANGER: Inhibition of human HD-MY-Z cell growth in a cell viability assay.

[34] = system: KNS-81-FD; assay type: functional, cell-based, Homo sapiens; conditions: Homo sapiens, KNS-81-FD;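 further: growth inhibition of KNS-81-FD cells, read out with a cell viability assay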
Description: SANGER: Inhibition of human KNS-81-FD cell growth in a cell viability assay.

[35] = system: HL-60; assay type: functional, cell-based, Homo sapiens; conditions: Homo sapiens, HL-60;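 further: growth inhibition of human HL-60 cells, read out with a cell viability assay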
Description: SANGER: Inhibition of human HL-60 cell growth in a cell viability assay.

[36] = system: K5; assay type: functional, cell-based, Homo sapiens; conditions: Homo sapiens, K5
Description: SANGER: Inhibition of human K5 cell growth in a cell viability assay.

[37] = system: HT-144; assay type: functional, cell-based, Homo sapiens; conditions: Homo sapiens, HT-144
Description: SANGER: Inhibition of human HT-144 cell growth in a cell viability assay.

[38] = system: DEL; assay type: functional, cell-based, Homo sapiens; conditions: Homo sapiens, DEL;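 further: growth inhibition of the human DEL cell line, read out with a cell viability assay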
Description: SANGER: Inhibition of human DEL cell growth in a cell viability assay.

[39] = system: AM-38; assay type: functional, cell-based, Homo sapiens; conditions: Homo sapiens, AM-38;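 further: growth inhibition of AM-38 cells of human origin, read out by a cell viability assay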
Description: SANGER: Inhibition of human AM-38 cell growth in a cell viability assay.

[40] = system: NCI-H720; assay type: functional, cell-based, Homo sapiens; conditions: Homo sapiens, NCI-H720;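 further: growth inhibition of human NCI-H720 cells determined by a cell viability assay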
Description: SANGER: Inhibition of human NCI-H720 cell growth in a cell viability assay.

[41] = system: SK-PN-DW; assay type: functional, cell-based, Homo sapiens; conditions: Homo sapiens, SK-PN-DW;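 further: growth inhibition measured with a viability assay on these cells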
Description: SANGER: Inhibition of human SK-PN-DW cell growth in a cell viability assay.

[42] = system: CCRF-CEM; assay type: functional, cell-based, Homo sapiens; conditions: Homo sapiens, CCRF-CEM;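 further: inhibition of CCRF-CEM cell growth, measured by a cell viability assay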
Description: SANGER: Inhibition of human CCRF-CEM cell growth in a cell viability assay.

[43] = system: MOLT-4; assay type: functional, cell-based, Homo sapiens; conditions: Homo sapiens, MOLT-4;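 further: growth inhibition of MOLT-4 cells, determined with a cell viability readout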
Description: SANGER: Inhibition of human MOLT-4 cell growth in a cell viability assay.

[44] = system: D283 Med; assay type: functional, cell-based, Homo sapiens; conditions: Homo sapiens, D283 Med
Description: SANGER: Inhibition of human D-283MED cell growth in a cell viability assay.

[45] = system: HCC1187; assay type: functional, cell-based, Homo sapiens; conditions: Homo sapiens, HCC1187;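 further: growth inhibition of HCC1187 cells, read out with a cell viability assay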
Description: SANGER: Inhibition of human HCC1187 cell growth in a cell viability assay.

[46] = system: GI-ME-N; assay type: functional, cell-based, Homo sapiens; conditions: Homo sapiens, GI-ME-N;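 further: growth inhibition of human GI-ME-N cells, read out with a cell viability assay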
Description: SANGER: Inhibition of human GI-ME-N cell growth in a cell viability assay.

[47] = system: MEG-01; assay type: functional, cell-based, Homo sapiens; conditions: Homo sapiens, MEG-01;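 further: growth inhibition of MEG-01 cells, read out by a cell viability assay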
Description: SANGER: Inhibition of human MEG-01 cell growth in a cell viability assay.

[48] = system: LB996-RCC; assay type: functional, cell-based, Homo sapiens; conditions: Homo sapiens, LB996-RCC
Description: SANGER: Inhibition of human LB996-RCC cell growth in a cell viability assay.

Q: For C=CC(=O)N1CCCC(Nc2nc(Nc3ccc(N(C)C(=O)CC)cc3)nc3[nH]cnc23)C1 (stereo unspecified), which IC50 [1] is on record?
A: > 10200 nM

Q: What about the IC50 [2] of the same compound?
A: > 10200 nM

Q: What about the IC50 [3] of the same compound?
A: > 10200 nM

Q: And the IC50 [4]?
A: > 10200 nM

Q: And the IC50 [5]?
A: > 10200 nM

Q: And the IC50 [6]?
A: > 10200 nM

Q: And the IC50 [7]?
A: > 10200 nM

Q: What about the IC50 [8] of the same compound?
A: > 10200 nM

Q: What about the IC50 [9] of the same compound?
A: > 10200 nM

Q: What about the IC50 [10] of the same compound?
A: > 10200 nM

Q: And the IC50 [11]?
A: > 10200 nM

Q: What about the IC50 [12] of the same compound?
A: > 10200 nM

Q: And the IC50 [13]?
A: > 10200 nM

Q: What about the IC50 [14] of the same compound?
A: > 10200 nM

Q: And the IC50 [15]?
A: 2390 nM

Q: What about the IC50 [16] of the same compound?
A: > 10200 nM

Q: And the IC50 [17]?
A: > 10200 nM

Q: What about the IC50 [18] of the same compound?
A: > 10200 nM

Q: And the IC50 [19]?
A: > 10200 nM

Q: What about the IC50 [20] of the same compound?
A: > 10200 nM

Q: What about the IC50 [21] of the same compound?
A: > 10200 nM

Q: And the IC50 [22]?
A: > 10200 nM

Q: And the IC50 [23]?
A: > 10200 nM

Q: What about the IC50 [24] of the same compound?
A: > 10200 nM

Q: And the IC50 [25]?
A: > 10200 nM

Q: And the IC50 [26]?
A: 2950 nM

Q: What about the IC50 [27] of the same compound?
A: > 10200 nM

Q: What about the IC50 [28] of the same compound?
A: > 10200 nM

Q: What about the IC50 [29] of the same compound?
A: > 10200 nM

Q: And the IC50 [30]?
A: > 10200 nM

Q: What about the IC50 [31] of the same compound?
A: > 10200 nM

Q: And the IC50 [32]?
A: > 10200 nM

Q: And the IC50 [33]?
A: > 10200 nM

Q: And the IC50 [34]?
A: > 10200 nM

Q: What about the IC50 [35] of the same compound?
A: > 10200 nM

Q: What about the IC50 [36] of the same compound?
A: > 10200 nM

Q: What about the IC50 [37] of the same compound?
A: > 10200 nM

Q: And the IC50 [38]?
A: > 10200 nM

Q: What about the IC50 [39] of the same compound?
A: > 10200 nM

Q: What about the IC50 [40] of the same compound?
A: > 10200 nM

Q: What about the IC50 [41] of the same compound?
A: > 10200 nM

Q: And the IC50 [42]?
A: > 10200 nM

Q: And the IC50 [43]?
A: > 10200 nM

Q: And the IC50 [44]?
A: > 10200 nM

Q: And the IC50 [45]?
A: > 10200 nM

Q: And the IC50 [46]?
A: > 10200 nM

Q: And the IC50 [47]?
A: > 10200 nM

Q: What about the IC50 [48] of the same compound?
A: > 10200 nM

Q: With COC(=O)[C@H](CCSC)NC(=O)c1ccc(NC[C@@H](N)CS)cc1-c1ccccc1 as the compound, how does the IC50 [1] read?
A: > 1020 nM

Q: And the IC50 [2]?
A: > 1020 nM

Q: What about the IC50 [3] of the same compound?
A: > 1020 nM

Q: What about the IC50 [4] of the same compound?
A: > 1020 nM

Q: What about the IC50 [5] of the same compound?
A: > 1020 nM

Q: What about the IC50 [6] of the same compound?
A: > 1020 nM

Q: And the IC50 [7]?
A: > 1020 nM

Q: And the IC50 [8]?
A: > 1020 nM

Q: And the IC50 [9]?
A: > 1020 nM

Q: What about the IC50 [10] of the same compound?
A: > 1020 nM

Q: What about the IC50 [11] of the same compound?
A: > 1020 nM

Q: What about the IC50 [12] of the same compound?
A: > 1020 nM

Q: What about the IC50 [13] of the same compound?
A: > 1020 nM

Q: What about the IC50 [14] of the same compound?
A: > 1020 nM

Q: And the IC50 [15]?
A: > 1020 nM

Q: What about the IC50 [16] of the same compound?
A: > 1020 nM

Q: What about the IC50 [17] of the same compound?
A: > 1020 nM

Q: What about the IC50 [18] of the same compound?
A: > 1020 nM

Q: And the IC50 [19]?
A: > 1020 nM

Q: What about the IC50 [20] of the same compound?
A: > 1020 nM

Q: What about the IC50 [21] of the same compound?
A: > 1020 nM

Q: And the IC50 [22]?
A: > 1020 nM

Q: And the IC50 [23]?
A: > 1020 nM

Q: And the IC50 [24]?
A: > 1020 nM

Q: And the IC50 [25]?
A: > 1020 nM

Q: What about the IC50 [26] of the same compound?
A: > 1020 nM

Q: And the IC50 [27]?
A: 838 nM

Q: And the IC50 [28]?
A: > 1020 nM

Q: And the IC50 [29]?
A: > 1020 nM

Q: What about the IC50 [30] of the same compound?
A: > 1020 nM

Q: And the IC50 [31]?
A: > 1020 nM

Q: What about the IC50 [32] of the same compound?
A: > 1020 nM

Q: What about the IC50 [33] of the same compound?
A: > 1020 nM

Q: What about the IC50 [34] of the same compound?
A: > 1020 nM

Q: And the IC50 [35]?
A: > 1020 nM

Q: And the IC50 [36]?
A: > 1020 nM

Q: And the IC50 [37]?
A: > 1020 nM

Q: And the IC50 [38]?
A: > 1020 nM

Q: What about the IC50 [39] of the same compound?
A: > 1020 nM

Q: And the IC50 [40]?
A: > 1020 nM

Q: What about the IC50 [41] of the same compound?
A: > 1020 nM

Q: And the IC50 [42]?
A: > 1020 nM

Q: What about the IC50 [43] of the same compound?
A: > 1020 nM

Q: What about the IC50 [44] of the same compound?
A: > 1020 nM

Q: What about the IC50 [45] of the same compound?
A: > 1020 nM

Q: And the IC50 [46]?
A: > 1020 nM

Q: What about the IC50 [47] of the same compound?
A: > 1020 nM

Q: And the IC50 [48]?
A: > 1020 nM
